The values that follow come from ChEMBL document CHEMBL4622948, “SAR of non-hydrolysable analogs of pyridoxal 5'-phosphate against low molecular weight protein tyrosine phosphatase isoforms” (Bioorg Med Chem Lett, 2020).

In test [1] the target is T1, Low molecular weight phosphotyrosine protein phosphatase (Homo sapiens) (UniProt P24666).
T1 sequence (whole entry): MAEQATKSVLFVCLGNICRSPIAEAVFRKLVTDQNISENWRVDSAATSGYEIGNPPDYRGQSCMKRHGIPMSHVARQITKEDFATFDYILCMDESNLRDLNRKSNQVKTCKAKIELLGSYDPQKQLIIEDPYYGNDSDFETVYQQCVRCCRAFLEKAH
Nature of the test: Inhibition of LMW-PTP isoform A (unknown origin).

The species named for a further test is Homo sapiens. The test is described as follows: Selectivity index, ratio of Ki for LMW-PTP isoform B (unknown origin) to Ki for LMW-PTP isoform A (unknown origin).
Test [2] addresses T1, Low molecular weight phosphotyrosine protein phosphatase (Homo sapiens). The test is described as follows: Inhibition of LMW-PTP isoform B (unknown origin).
For test [3], the target named is T2, Low molecular weight phosphotyrosine protein phosphatase (Homo sapiens, UniProt P24666).
T2 sequence (P24666 whole entry): T1 sequence (whole entry)
Nature of the test: Competitive inhibition of LMW-PTP isoform A (unknown origin).

Test [4] is described as follows: Competitive inhibition of bovine LMW-PTP isoform B using para-Nitrophenyl phosphate as substrate at pH 5 by Lineweaver-Burk double reciprocal plot analysis. On the set-up: species or system Bos taurus.

In the case of `Cc1ccc(/C=C/P(=O)(O)O)cc1O`, the Kis in test [1] amounted to 50.3 µM; in test [2] it was 42.4 µM. The Ratio in the test filed under Homo sapiens was found to be 0.8.
With `Cc1ccc(CCP(=O)(O)O)cn1`, the results for the Kis in test [1] and in test [2] were 1.84 µM and 15.6 µM, respectively. The Ratio in the test filed under Homo sapiens was 8.5.
The corresponding values for `O=P(O)(O)/C=C/c1cccc(O)c1` are 15.7 µM, 580 µM and 37.
The corresponding values for `Cc1ncc(CCP(=O)(O)O)c(C=O)c1O` are 74.9 µM, 218 µM and 2.9.
On to `O=P(O)(O)CCc1cccc(O)c1`, for which the Kis was 13 µM in test [1] and 52.2 µM in test [2]. In addition, the Ratio in the test listed under Homo sapiens was determined as 4.
For the molecule `Cc1ncc(COP(=O)(O)O)c(C=O)c1O` [PYRIDOXAL PHOSPHATE ANHYDROUS], the inhibition constant (Ki) was 13 µM in test [3] and 7.6 µM in test [4].
Turning to `Cc1ncc(CCP(=O)(O)O)c(CO)c1O`, the values for the Kis in test [1] and in test [2] were 10.4 µM and 552 µM, respectively. Besides, in the test listed under Homo sapiens, the Ratio stood at 53.
For the molecule `O=P(O)(O)CCc1ccccc1`, the Kis in test [1] is 552 µM; in test [2], above 10000 µM. Further, the Ratio in the test filed under Homo sapiens is above 18.
With `O=P(O)(O)/C=C/c1cccnc1`, the Kis in test [1] came to 243 µM; in test [2], 1070 µM. Further, the Ratio in the test filed under Homo sapiens stood at 4.4.
`Cc1ccc(CCP(=O)(O)O)cc1`: the Kis in test [1] was determined as 130 µM; in test [2], 323 µM. Moreover, in the test listed under Homo sapiens, the Ratio is 2.5.
Consider `Cc1ccc(/C=C/P(=O)(O)O)cc1`, for which the values for the Kis in test [1] and in test [2] were 66.8 µM and 323 µM, respectively. Moreover, the Ratio in the test listed under Homo sapiens was determined as 4.8.
Turning to `Cc1ncc(/C=C/P(=O)(O)O)c(C=O)c1O`, the Kis in test [1] is 5.14 µM; in test [2], 113 µM. The Ratio in the test filed under Homo sapiens stood at 22.
`Cc1ccc(CCP(=O)(O)O)cc1O`: the Kis in test [1] is 3.59 µM; in test [2], 39.9 µM. Further, the Ratio in the test filed under Homo sapiens turned out to be 11.
For the molecule `Cc1ncc(/C=C/P(=O)(O)O)c(CO)c1O`, the Kis is 16.3 µM in test [1] and 6060 µM in test [2]. The Ratio in the test listed under Homo sapiens was 372.
Turning to `Cc1ccc(/C=C/P(=O)(O)O)cn1`, the Kis in test [1] was determined as 213 µM; in test [2] it was 842 µM. In addition, in the test filed under Homo sapiens, the Ratio was 4.
In the case of `O=P(O)(O)C(F)(F)Cc1ccccc1`, the Kis in test [1] is 359 µM; in test [2], above 10000 µM. Also, the Ratio in the test listed under Homo sapiens was above 28.
`O=P(O)(O)CCc1cccnc1`: the Kis in test [1] turned out to be 103 µM; in test [2], 1080 µM. In the test filed under Homo sapiens, the Ratio worked out at 10.4.
Turning to `O=P(O)(O)/C=C/c1ccccc1`, the Kis in test [1] was 482 µM; in test [2], above 10000 µM. Besides, in the test filed under Homo sapiens, the Ratio is above 21.

One may read the Ki as the equilibrium dissociation constant of an inhibitor or competing ligand from its target. Read a high Ki as lower affinity.
